From patent US20250302798A1, “STING INHIBITORS AND USE THEREOF” (CARMEL HAIFA UNIVERSITY ECONOMIC CORPORATION LTD., priority 2022, published 2025)
“Also recorded” adds a separate entry of the source.

Key:
[1] = tested on: STING-IFN-β axis; experiment: Zymosan A peritonitis in vivo, macrophage cytokines and STING pathway Western blotting; parameters: species or system mice; conditions: 50 μM compound, 100 μl/mouse
Description: FIGS. 6A-6D include graphs and an image showing that compound 2.1 activates in vivo the STING-IFN-β axis and enhances biased cytokine production by macrophages. Mice were injected with zymosan A for 66 h. Twenty-four 24 post peritonitis initiation (PPI) the mice were injected with DMSO (0.4%), 4 mg/kg DMXAA or 50 μM compound 2.1 (100 μl/mouse). Macrophages were collected from the spleen (6A-6C), or peritoneum (6D) and incubated for 24 h with LPS (1 μg/ml) or vehicle (6A-6C) or lysed and analyzed by Western blotting immediately for the STING pathway (6D). Culture supernatants from incubated macrophages were analyzed by ELISA for the secretion of TNFα (6A), IL-10 (6B), and IL-6 (6C). Results are mean±SEM of 3 experiments (6A-6C) or representative blots. One-way ANOVA, and Tukey HSD test * P≤0.05, ** P≤0.01.

[2] = target: T1, STING (Homo sapiens, UniProt Q86WV6); experiment: Cytokine expression and STING signaling in PMA-differentiated U937 macrophages; format: cell-based; conditions: 50 nM, compared with c-GAMP 1 μg/ml
T1 construct: endogenous in cells; host or cells: U937 cells differentiated with PMA
Description: FIGS. 8A-8G include graphs and an image showing that compound 2.1 activates cytokine expression and STING signaling in human macrophages in a similar fashion to cGAMP. Human monocytes of the U937 cell line were treated with phorbol 12-myristate 13-acetate (PMA; 50 ng/ml) for 48 hours. Then, differentiated macrophages (4×10^6 cells) were treated with c-di-GMP (10 μg/ml), c-GAMP (1 μg/ml), compound 2.1 (50 nM) or vehicle for 8 (8A-8F) or 2 (8G) hours. Cells (8A-8D, and 8G) or culture supernatants (8E-8F), were collected and analyzed by RT-PCR, ELISA, and immunoblotting for: TNFα (8A), IL-6 (8B), IL-10 (8C), IFN-β (8D), IL-10 (8E), and TNFα (8F), or STING-IFN-β-RGS2 pathway proteins and actin as a loading control (8G). Results are representative mean±SEM from 3 experiments. One-way ANOVA, and Tukey HSD test ** P≤0.01, P<0.001, **** P≤0.0001.

[3] = tested on: liver fibrosis; experiment: CCl4 mouse liver fibrosis model, liver Western blot; format: in vivo, C57BL/6 mice; conditions: CCl4 mice, 50 μM compound
Description: FIGS. 7A-7E include an image and graphs showing that compound 2.1 facilitates anti-fibrotic responses during the resolution of liver fibrosis. Mice were injected I.P. with the fibrosis-inducing agent CCl4 twice a week. After 28 days the mice were injected with vehicle (DMSO 0.4%), or 50 μM compound 2.1 ([…]). After 2 additional days, livers were collected and analyzed by western blot (7A) for their expression of collagen 1 and the M2 marker arginase 1, as well as β-actin (loading control). Alternatively, livers were analyzed for their mRNA expression of the IFN-responsive genes Ifitml (7B) and Ifitm3 (7C), or the anti-fibrotic protein Rgs2 (7D). Liver interstitial fluids were evaluated for the anti-fibrotic cytokine IL-10 (7E) levels. Results are representative from 4 (A) or mean±SEM of 8 mice (7B-7E). One-way ANOVA, and Tukey HSD test ** P≤0.01, **** P≤0.0001.
FIGS. 9A-9E include an image of Western blot analysis and vertical bar graphs showing that compound 2.1 reduces production of fibrosis-related factors. (9A) Western blot analysis showing that treatment with compound 2.1 (c2.1) in a liver fibrosis model results in: reduced production of Collagen 1 (Col-1), and of Arginase 1, and increased production of IFN-β. (9B-9E) Vertical bar graphs showing densitometric analysis of (9A) for Col-1 (9B), Arginase-1 (9C), IFN-β (9D), and alpha smooth muscle actin (αSMA; 9E). (9B-9E) results are mean±SEM. One-way ANOVA, and Tukey HSD test * P≤0.05, ** P≤0.01.
Male C57BL/6 mice were randomly assigned to experimental groups at approximately eight weeks old. Mice were injected I.P. with CCl4 (1 ml/kg) three times a week for six weeks with 0.2 ml of a 10 percent CCl4 in corn oil. Forty-eight hours before sacrifice, the vehicle group was injected I.P. with CCL4, while the treatment group was injected with CCl4 and 50 μM of compound 2.1. Then the liver was collected in a RIPA buffer for Western blot analysis.
Protein extracts of liver tissue were separated by sodium dodecyl sulfate polyacrylamide gel electrophoresis (SDS-PAGE), transferred to PVDF membranes (Bio-Rad Laboratories, Inc.), blocked with 5% skimmed milk powder, and immunoblotted with antibodies targeting: IFN-β, arginase 1, collagen 1, or β-actin. Then, the membranes were washed, incubated with the appropriate horseradish peroxidase (HRP)-conjugated secondary antibody, and developed using WesternBright™ ECL (Advansta Inc). Band density was quantified with FIJI ImageJ software.

T1 sequence (Q86WV6 whole entry H232R): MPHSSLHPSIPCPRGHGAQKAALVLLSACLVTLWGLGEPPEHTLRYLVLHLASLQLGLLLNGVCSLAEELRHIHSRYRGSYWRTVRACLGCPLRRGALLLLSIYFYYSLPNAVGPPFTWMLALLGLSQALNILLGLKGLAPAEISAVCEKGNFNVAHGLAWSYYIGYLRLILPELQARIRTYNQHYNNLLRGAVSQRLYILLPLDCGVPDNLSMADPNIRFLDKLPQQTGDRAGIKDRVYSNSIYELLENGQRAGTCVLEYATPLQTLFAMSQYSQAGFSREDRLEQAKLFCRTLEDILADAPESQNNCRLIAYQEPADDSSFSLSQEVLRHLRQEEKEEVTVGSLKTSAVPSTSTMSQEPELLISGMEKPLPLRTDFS

c1ccc(CSc2nnc(CCCCCCCCc3nnc(SCc4ccccc4)o3)o2)cc1 [Compound 2.1, 2-(benzylsulfanyl)-5-{8-[5-(benzylsulfanyl)-1,3,4-oxadiazol-2-yl]octyl}-1,3,4-oxadiazole]
STING-IFN-β axis in vivo ([1]; 24 h post peritonitis initiation, peritoneal macrophages): activates | Biased cytokine production by macrophages (TNFα, IL-10, IL-6) ([1]; spleen macrophages ex vivo ± LPS 1 μg/ml 24 h): enhances | STING signaling (STING-IFN-β-RGS2 pathway proteins) ([2]; 2 hours): activates | Cytokine expression (TNFα, IL-6, IL-10, IFN-β) ([2]; 8 hours): activates | Production of fibrosis-related factors [3]: reduces | Production of Arginase 1 in liver ([3]; Western blot): reduction; also recorded: reduced | Production of Collagen 1 in liver ([3]; Western blot): reduction; also recorded: reduced | Production of IFN-β in liver ([3]; Western blot): elevated production; also recorded: increased | Anti-fibrotic responses during the resolution of liver fibrosis ([3]; livers after 2 days): facilitates
